In patent publication US4610994A, “1,2,3-triazole anticonvulsant drugs” (priority 1984, dated 1986):
Where “and” joins values, the source holds several entries; their conditions need not be identical. Identical values can stand only once. Entries after “also recorded” stand apart in the source; their conditions may differ. Like-named read-outs stand apart in the source and are kept apart here.

What was measured:
[1] = system: maximal electro-shock seizure (MES) and subcutaneous pentylenetetrazole (Metrazole) seizure threshold (scMet); assay: Phase I anticonvulsant screening (MES test and scMet test); type: in vivo, mouse; details: at effective dose levels (Class I) or 300 mg/kg (8, 13)
[2] = system: subcutaneous Bicuculline seizures; assay: subcutaneous Bicuculline Seizure Threshold Test (sc Bic) in mice; type: in vivo, mice (male albino, CF No. 1); details: mice i.p.; Compound 10 up to 300 mg/kg
Description: (§3) All animals were allowed free access to both food (S/L Custom Lab Diet-7) and water, except when they were removed from their cages for the experimental procedure.
(§4) The drugs were administered either orally or intraperitoneally in a volume of 0.01 ml/g body weight in mice and 0.04 ml/10 g in rats. All tests were conducted at the previously determined time of peak drug effect.
(§5) The profile of anticonvulsant activity for each substance was established by five tests: one electrical and four chemical. The electrical test employed was the maximal electroshock seizure pattern test. […] Except for the sc Strych Test, these tests measure the ability of anticonvulsants to afford complete protection against threshold seizures induced by the subcutaneous injection of the CD97 of the convulsant agent.
(§6) All convulsants were administered subcutaneously into a loose fold of skin on the back of the neck in a volume of 0.01 ml/g body weight in mice; Metrazol was injected in a volume of 0.02 ml/10 g body weight in rats. The convulsant drugs were administered at the previously determined time of peak anticonvulsant action of the drug under study. […] Except for strychnine, absence of a five-second episode of clonic spasms (threshold seizure) was taken as protection. In the case of strychnine, complete abolition of the hindleg tonic extension was taken as protection.

[3] = system: subcutaneous Picrotoxin seizures; assay: subcutaneous Picrotoxin Seizure Threshold Test (sc Pic) in mice; type: in vivo, mice (male albino, CF No. 1); details: mice i.p.; Compound 10 up to 300 mg/kg
Description: as §3, §4, §5, §6

[4] = system: subcutaneous Strychnine seizures; type: in vivo, mice (male albino, CF No. 1); details: mice i.p.; Compound 10 up to 300 mg/kg
Description: as §3, §4, §5, §6

[5] = loss of righting reflex (HD50) in mice i.p.; design: species or system mice (male albino, CF No. 1); details: mouse, in vivo, ip
Description: (§7) The profile of toxicity for each test drug was established by the following procedures: Firstly, the minimal neurotoxic dose (TD50) was determined by the rotorod procedure at the time of peak neurotoxic effect. When a normal mouse is placed on a knurled rod one inch in diameter rotating at a speed of six rpm it can maintain its equilibrium for long periods of time. Neurological deficit is indicated by inability of the mouse to maintain its equilibrium for one minute in each of three trials on this rotating rod. […] The HD50 represents the median dose at which 50% of animals lose their righting reflex.

[6] = five-day oral LD3 in rats; type: in vivo
Description: (§1) Phase VII studies of Compound 10 included five-day LD3, five-day tolerance studies, and effect of chronic administration on the liver microsomal enzyme system. The five-day oral LD3 of Compound 10 is <300 mg/kg in male rats and >300 mg/kg in female rats.
(§2) Thus, the estimated five-day LD3 for Compound 10 is <300 mg/kg in male rats and >300 but <1000 mg/kg in female rats.

[7] = system: maximal electroshock seizures; assay: five-day tolerance study in rats (MES test); type: in vivo
Description: as §1, §2

hexobarbital sleep time = hexobarbital sleep time after chronic administration in rats; type: in vivo
Description: as §1

cytochrome P-450 = assay: effect of chronic administration on liver microsomal cytochrome P-450; type: in vivo, rats
Description: as §1, §2

[8] = system: p-nitroanisole O-demethylase; assay: effect of chronic administration on liver p-nitroanisole O-demethylase; type: in vivo, rats
Description: as §1, §2

cytochrome C reductase = assay: effect of chronic administration on liver cytochrome C reductase; type: in vivo, rats
Description: as §1, §2

[9] = oral absorption in mice from oral/i.p. ratios; type: in vivo
Excerpt: The extent of oral absorption can be determined from the ratio of the oral ED50/i.p. […] The oral TD50/i.p. TD50 and oral ED50/i.p.

in vivo [10] = details: mouse, po
Description: as §3, §4, §5

in vivo [11] = details: mouse
Description: as §3, §4, §5, §6

in vivo [12] = details: mouse; remark: listed apart in the source
Description: as §3, §4
(§8) The profile of toxicity for each test drug was established by the following procedures: Firstly, the minimal neurotoxic dose (TD50) was determined by the rotorod procedure at the time of peak neurotoxic effect. When a normal mouse is placed on a knurled rod one inch in diameter rotating at a speed of six rpm it can maintain its equilibrium for long periods of time. Neurological deficit is indicated by inability of the mouse to maintain its equilibrium for one minute in each of three trials on this rotating rod. Neurological deficit in rats is indicated by ataxia, loss of placing response and muscle tone.

in vivo [13] = details: mouse, ip
[14] = 24-hour lethality (LD50) in mice i.p.
[15] = system: maximal electroshock seizures; assay: maximal electroshock seizure (MES) pattern test in mice; details: for ED97 / Safety ratio (TD3/ED97): MES
Description: as §3, §4, §5

[16] = maximal electroshock seizure (MES) pattern test in rats; details: rat, in vivo, po, Safety ratio (TD3/ED97), rats, MES
Description: as §3, §4, §5

[17] = system: maximal electroshock seizures; assay: as above
Description: as §3, §4, §5

[18] = system: subcutaneous Metrazol seizures; assay: subcutaneous Metrazol Seizure Threshold Test (sc Met) in mice; details: for ED97: sc Met
Description: as §3, §4, §5, §6

[19] = system: subcutaneous Metrazol seizures; assay: subcutaneous Metrazol Seizure Threshold Test (sc Met) in rats
Description: as §3, §4, §5, §6

[20] = Phase III toxicity profile (overt signs and symptoms) in mice i.p.
Description: as §7

[21] = minimal neurotoxicity (ataxia, loss of placing response and muscle tone) in rats; details: for TD3: oral
Description: as §3, §4, §8

[22] = rats, acute (single dose) control group
[23] = mice, i.p., 95% confidence interval
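Wherever Rotorod TD50 is given: mice on rotorod: neurological deficit scored when the animal cannot keep balance for 1 min in every one of three trials on a 1-inch knurled rod turning at 6 rpm.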
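Wherever Rotorod toxicity is given: mice on rotorod: neurological deficit scored when the animal cannot keep balance for 1 min in every one of three trials on a 1-inch knurled rod turning at 6 rpm.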
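Wherever TPE by the rotorod test is given: mice on rotorod: neurological deficit scored when the animal cannot keep balance for 1 min in every one of three trials on a 1-inch knurled rod turning at 6 rpm.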
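Wherever time of peak effect (TPE), rotorod toxicity test is given: mice on rotorod: neurological deficit scored when the animal cannot keep balance for 1 min in every one of three trials on a 1-inch knurled rod turning at 6 rpm.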

Clc1ccc(-n2nncc2-c2cccnc2)cc1 [Compound 10, 1-(para-chlorophenyl)-5-(3-pyridyl)-1H-1,2,3-triazole]
signs of neurological deficit [1]: do not exhibit significant signs of neurological deficit
effectiveness by the sc Bic test [2]: ineffectiveness; also recorded: ineffective in doses up to 300 mg/kg
effectiveness by the sc Pic test [3]: ineffectiveness; also recorded: ineffective in doses up to 300 mg/kg
effectiveness by the sc Strych test [4]: ineffectiveness; also recorded: ineffective in doses up to 300 mg/kg
HD50 (righting reflex) [5]: 525.98(473.77-564.48) mg/kg
time of peak toxicity (TPE), righting reflex [5]: 6 h
TD50 ([5]; HD50 (righting reflex)): 526 mg/kg
five-day oral LD3 ([6]; male rats): < 300 mg/kg
five-day oral LD3 ([6]; rat, in vivo, po, 7200 min): > 300 mg/kg
toxicity, male vs female rats ([6]; rats, chronic): more toxic in male than in female rats
MES test, animals protected ([7]; acute (single dose, 50 mg/kg) control group, 50 mg/kg): 6 of 8 protected and 6 of 8 rats protected
MES test, animals protected ([7]; chronic-treated group, five daily doses of 50 mg/kg): 1 of 8 protected
tolerance to the anticonvulsant effects ([7]; five days): significant tolerance occurs within this period of time
hexobarbital sleep time (hexobarbital sleep time; acute (single dose) control group): 16.3 ± 1.2 min
hexobarbital sleep time (hexobarbital sleep time; chronic-treated group): 15.0 ± 2.0 min
cytochrome P-450 (cytochrome P-450; chronically treated rats): 0.988±0.096 n moles/mg
cytochrome P-450 (cytochrome P-450; [22]): 0.720±0.054 n moles/mg
increase in liver cytochrome P-450 (cytochrome P-450; rats, chronic vs acute): 37%
p-nitroanisole O-demethylase ([8]; chronically treated rats): 0.640±0.098 n moles/mg/min
p-nitroanisole O-demethylase [8, 22]: 0.261±0.035 n moles/mg/min
increase in p-nitroanisole O-demethylase ([8]; rats, chronic vs acute): 145%
cytochrome C reductase (cytochrome C reductase; chronically treated rats): 219±24 n moles/mg/min
cytochrome C reductase (cytochrome C reductase; [22]): 157±11 n moles/mg/min
increase in cytochrome C reductase (cytochrome C reductase; rats, chronic vs acute): 40%
oral absorption [9]: adequately absorbed in mice after oral administration
toxicity (300 mg/kg, four hours after administration): one of two animals
Rotorod toxicity (300 mg/kg, thirty minutes after administration): all four animals
time of peak effect (TPE), rotorod toxicity test (mice, i.p.): 60 min
TD3 (mice, i.p., MES): 175
TD3 (mice, i.p., sc Met): 175
Rotorod TD50 [23]: 244.51(221.82-275.17) mg/kg and 244.51(222.82-275.17) mg/kg
TD3 (mice, oral, MES): 173
TD3 (mice, oral, sc Met): 173
TPE by the rotorod test (mice, p.o.): six
TD50 (mice, p.o., 95% confidence interval): 729.08 (492.47-1009.17) mg/kg
selectivity ratio (in vivo [10]): 5.54
selectivity ratio (in vivo [11]; ip): 9.07
selectivity ratio (in vivo [11]; po): 5.37
TD50 (in vivo [12]; ip): 245 mg/kg
TD50 (in vivo [12]; po): 729 mg/kg
LD50 at 24 h (in vivo [13]): 569 mg/kg
LD50/HD50 ratio [14]: 1.08
LD50/TD50 ratio [14]: 2.33
oral ED50/i.p. ED50 ratio, MES ([15]; mice): 2.00
toxicity of doses giving 97% protection, MES or sc Met test ([15]; mice and rats, oral): toxic doses are required to protect 97% of animals
time of peak effect (TPE), anticonvulsant tests ([15]; mice i.p., anticonvulsant tests (MES, sc Met)): 30 min
mice protected in the MES test at nontoxic doses ([15]; mice, i.p.): 97%
protective index (TD50/ED50) by the MES test ([15]; mice, i.p.): 3.72
ED97 ([15]; mice, i.p.): 145
Safety ratio (TD3/ED97) ([15]; mice, i.p.): 1.2
MES ED50 [15, 23]: 65.76 mg/kg and 65.76(51.82-83.19) mg/kg
ED97 ([15]; mice, oral): 275
Safety ratio (TD3/ED97) ([15]; mice, oral): 0.6
MES ED50 ([15]; mice, p.o.): 131.67 mg/kg
potency relative to phenobarbital, MES test ([15]; mice, p.o.): 1/6
potency relative to phenytoin, MES test ([15]; mice, p.o.): 1/15
selectivity ratio [16]: 0.07
ED97 ([17]; Rattus norvegicus, po): 215 mg/kg
ED50 ([17]; Rattus norvegicus, po, read-out: MES ED50): 49.9 mg/kg
97% protection by the MES and sc Met tests in nontoxic doses ([17]; rats, oral): do not provide 97% protection
TPE by the MES and sc Met tests ([17]; rats, p.o.): four
oral ED50/i.p. ED50 ratio, sc Met ([18]; mice): 5.03
toxicity of doses giving 97% protection, sc Met test ([18]; mice, i.p.): toxic doses are required
ED97 ([18]; mice, i.p.): 900
sc Met ED50 [18, 23]: 26.95 mg/kg and 26.95(9.89-55.08) mg/kg
ED97 ([18]; mice, oral): 980
sc Met ED50 ([18]; mice, p.o.): 135.67 mg/kg
potency by the sc Met test in mice relative to rats ([18]; oral administration): about 21/2
ED97 ([19]; oral, sc Met): > 10000
Safety ratio (TD3/ED97) ([19]; oral, sc Met): 0.002
sc Met ED50 ([19]; p.o.): 329.18 mg/kg
Profile of acute toxicity, 1 x TD50 ([20]; 1TD50): decreased motor activity, rotorod toxicity, ataxia, and decreased respiration; also recorded: normal after 24 hours; also recorded: normal at 24 hrs
Profile of acute toxicity, 2 x TD50 ([20]; 2TD50): cyanosis, muscle relaxation, and loss of righting reflex; also recorded: dead after 24 hours
Profile of acute toxicity, 4 x TD50 ([20]; 4TD50): displayed all the symptoms characteristic of those given 1TD50 and 2TD50's of the test drug; however, the symptoms were more intense; also recorded: dead 4 hours after drug administration and the other was dead at 24 hours
neurotoxicity in rats relative to mice ([21]; oral administration): approximately 16 times
TD50 ([21]; rat, in vivo, po): 44.5 mg/kg
TD3 ([21]; rats, MES): 16
TD3 ([21]; rats, sc Met): 16
TPE by the toxicity test ([21]; rats, p.o.): two
TD50 ([21]; rats, p.o., 95% confidence interval): 44.48 (32.78-62.61) mg/kg
